The values below come from US20230279001A1, “IMIDAZO[1,2-A]PYRIDINE COMPOUNDS FOR THE TREATMENT OF AUTOIMMUNE DISEASE” (Hoffmann-La Roche Inc., priority 2020, published 2023).

A short description of data set [1]: Human microsome stability assay. It is filed as in vitro ADME. The conditions noted are these: human liver microsomes, 1 μM test compound, 37° C., NADPH regenerating system. Here is the method: The human microsomal stability assay is used for early assessment of metabolic stability of a test compound in human liver microsomes.
Human liver microsomes (Cat. NO.: 452117, Corning, USA; Cat. NO.: H2610, Xenotech, USA) were preincubated with test compound for 10 minutes at 37° C. in 100 mM potassium phosphate buffer, pH 7.4. The reactions were initiated by adding NADPH regenerating system. The final incubation mixtures contained 1 μM test compound, 0.5 mg/mL liver microsomal protein, 1 mM MgCl2, 1 mM NADP, 1 unit/mL isocitric dehydrogenase and 6 mM isocitric acid in 100 mM potassium phosphate buffer, pH 7.4. After incubation times of 0, 3, 6, 9, 15 and 30 minutes at 37° C., 300 μL of cold acetonitrile (including internal standard) was added to 100 μL incubation mixture to terminate the reaction. Following precipitation and centrifugation, the amount of compound remaining in the samples were determined by LC-MS/MS. Controls of no NADPH regenerating system at zero and 30 minutes were also prepared and analyzed.

Another data set has as its target human TLR7 (Homo sapiens (Human), UniProt Q9NYK1). In words: HEK293-Blue-hTLR-7 cells assay. The conditions noted are these: HEK293-Blue-hTLR7 cells, R848 stimulation, 20 hrs, SEAP reporter; read-out: HEK/hTLR7 IC50. Type of data set: cell-based. From the text:
(§1) A stable HEK293-Blue-hTLR-7 cell line was purchased from InvivoGen (Cat. #: hkb-htlr7, San Diego, Calif., USA). These cells were originally designed for studying the stimulation of human TLR7 by monitoring the activation of NF-κB. A SEAP (secreted embryonic alkaline phosphatase) reporter gene was placed under the control of the IFN-β minimal promoter fused to five NF-κB and AP-1-binding sites. The SEAP was induced by activating NF-κB and AP-1 via stimulating HEK-Blue hTLR7 cells with TLR7 ligands. Therefore the reporter expression was declined by TLR7 antagonist under the stimulation of a ligand, such as R848 (Resiquimod), for incubation of 20 hrs. The cell culture supernatant SEAP reporter activity was determined using QUANTI-Blue™ kit (Cat. #: rep-qb1, Invivogen, San Diego, Ca, USA) at a wavelength of 640 nm, a detection medium that turns purple or blue in the presence of alkaline phosphatase.
(§2) HEK293-Blue-hTLR7 cells were incubated at a density of 250,000˜450,000 cells/mL in a volume of 170 μL in a 96-well plate in Dulbecco's Modified Eagle's medium (DMEM) containing 4.5 g/L glucose, 50 U/mL penicillin, […], […], 2 mM L-glutamine, 10% (v/v) heat-inactivated fetal bovine serum with addition of 20 μL test compound in a serial dilution in the presence of final DMSO at 1% and 10 μL of 20 uM R848 in above DMEM, perform incubation under 37° C. in a CO2 incubator for 20 hrs. Then 20 μL of the supernatant from each well was incubated with 180 μL Quanti-blue substrate solution at 37° C. for 2 hrs and the absorbance was read at 620-655 nm using a spectrophotometer. The signaling pathway that TLR7 activation leads to downstream NF-κB activation has been widely accepted, and therefore similar reporter assay was modified for evaluating TLR7 antagonist.

The next data set deals with TLR9 (Homo sapiens (Human), UniProt Q9NR96). In words: HEK293-Blue-hTLR-9 cells assay. To be noted: HEK293-Blue-hTLR9 cells, ODN2006 stimulation, 20 hrs, SEAP reporter; read-out: HEK/hTLR9 IC50. Type of data set: cell-based.
Source text: as §1, with “HEK293-Blue-hTLR-9” for “HEK293-Blue-hTLR-7”, “hkb-htlr9,” for “hkb-htlr7,”, “TLR9” for “TLR7”, “hTLR9” for “hTLR7”, “ODN2006 (Cat. #: tlr1-2006-1, Invivogen, San Diego, Calif., USA),” for “R848 (Resiquimod),”, “Calif.,” for “Ca,”
HEK293-Blue-hTLR9 cells were incubated at a density of 250,000˜450,000 cells/mL in a volume of 170 μL in a 96-well plate in Dulbecco's Modified Eagle's medium (DMEM) containing 4.5 g/L glucose, 50 U/mL penicillin, […], 2 mM L-glutamine, 10% (v/v) heat-inactivated fetal bovine serum with addition of 20 μL test compound in a serial dilution in the presence of final DMSO at 1% and 10 μL, of 20 uM ODN2006 in above DMEM, perform incubation under 37° C. in a CO2 incubator for 20 hrs. Then 20 μL of the supernatant from each well was incubated with 180 μL, Quanti-blue substrate solution at 37° C. for 2 h and the absorbance was read at 620655 nm using a spectrophotometer. The signaling pathway that TLR9 activation leads to downstream NF-κB activation has been widely accepted, and therefore similar reporter assay was modified for evaluating TLR9 antagonist.

A further data set has as its target human TLR8 (Homo sapiens (Human), UniProt Q9NR97). In words: HEK293-Blue-hTLR-8 cells assay. It is filed as cell-based. To be noted: HEK293-Blue-hTLR8 cells, R848 stimulation, 20 hrs, SEAP reporter; read-out: HEK/hTLR8 IC50.
Source text: as §1, with “HEK293-Blue-hTLR-8” for “HEK293-Blue-hTLR-7”, “hkb-htlr8,” for “hkb-htlr7,”, “TLR8” for “TLR7”, “hTLR8” for “hTLR7”, “R848,” for “R848 (Resiquimod),”, “rep-gb1,” for “rep-qb1,”
as §2, with “HEK293-Blue-hTLR8 cells were” for “HEK293-Blue-hTLR7 cells were”, “μL of 60 uM R848” for “μL of 20 uM R848”, “read at 620655 nm using” for “read at 620-655 nm using”, “pathway that TLR8 activation leads” for “pathway that TLR7 activation leads”, “for evaluating TLR8 antagonist.” for “for evaluating TLR7 antagonist.”

Sequence of human TLR7 (Q9NYK1 27-1049): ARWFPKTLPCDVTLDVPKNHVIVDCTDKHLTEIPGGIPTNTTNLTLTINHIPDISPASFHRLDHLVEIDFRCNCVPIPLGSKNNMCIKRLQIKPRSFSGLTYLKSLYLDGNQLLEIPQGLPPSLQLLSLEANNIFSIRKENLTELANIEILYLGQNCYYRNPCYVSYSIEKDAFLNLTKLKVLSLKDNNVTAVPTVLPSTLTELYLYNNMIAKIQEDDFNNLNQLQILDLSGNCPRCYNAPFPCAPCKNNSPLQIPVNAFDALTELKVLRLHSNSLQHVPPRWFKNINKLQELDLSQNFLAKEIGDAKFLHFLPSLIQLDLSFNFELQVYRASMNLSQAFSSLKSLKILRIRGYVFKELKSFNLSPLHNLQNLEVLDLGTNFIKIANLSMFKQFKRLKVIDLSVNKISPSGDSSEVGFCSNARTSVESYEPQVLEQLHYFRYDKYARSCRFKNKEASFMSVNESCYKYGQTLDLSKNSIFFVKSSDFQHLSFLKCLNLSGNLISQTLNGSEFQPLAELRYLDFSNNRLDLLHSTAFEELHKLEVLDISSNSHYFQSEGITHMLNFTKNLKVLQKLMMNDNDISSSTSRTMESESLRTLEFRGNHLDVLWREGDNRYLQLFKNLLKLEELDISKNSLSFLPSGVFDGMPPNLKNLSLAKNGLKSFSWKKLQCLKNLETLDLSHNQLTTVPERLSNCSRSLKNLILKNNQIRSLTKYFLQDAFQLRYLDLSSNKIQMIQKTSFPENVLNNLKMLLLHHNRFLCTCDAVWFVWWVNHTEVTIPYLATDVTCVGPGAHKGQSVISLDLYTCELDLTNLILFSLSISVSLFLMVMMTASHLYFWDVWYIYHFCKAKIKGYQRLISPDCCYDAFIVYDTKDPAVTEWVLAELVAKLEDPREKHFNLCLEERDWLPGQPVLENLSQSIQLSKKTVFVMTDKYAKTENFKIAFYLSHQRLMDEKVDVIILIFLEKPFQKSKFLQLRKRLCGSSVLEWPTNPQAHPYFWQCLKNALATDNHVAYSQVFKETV
Sequence of human TLR8 (Q9NR97 27-1041): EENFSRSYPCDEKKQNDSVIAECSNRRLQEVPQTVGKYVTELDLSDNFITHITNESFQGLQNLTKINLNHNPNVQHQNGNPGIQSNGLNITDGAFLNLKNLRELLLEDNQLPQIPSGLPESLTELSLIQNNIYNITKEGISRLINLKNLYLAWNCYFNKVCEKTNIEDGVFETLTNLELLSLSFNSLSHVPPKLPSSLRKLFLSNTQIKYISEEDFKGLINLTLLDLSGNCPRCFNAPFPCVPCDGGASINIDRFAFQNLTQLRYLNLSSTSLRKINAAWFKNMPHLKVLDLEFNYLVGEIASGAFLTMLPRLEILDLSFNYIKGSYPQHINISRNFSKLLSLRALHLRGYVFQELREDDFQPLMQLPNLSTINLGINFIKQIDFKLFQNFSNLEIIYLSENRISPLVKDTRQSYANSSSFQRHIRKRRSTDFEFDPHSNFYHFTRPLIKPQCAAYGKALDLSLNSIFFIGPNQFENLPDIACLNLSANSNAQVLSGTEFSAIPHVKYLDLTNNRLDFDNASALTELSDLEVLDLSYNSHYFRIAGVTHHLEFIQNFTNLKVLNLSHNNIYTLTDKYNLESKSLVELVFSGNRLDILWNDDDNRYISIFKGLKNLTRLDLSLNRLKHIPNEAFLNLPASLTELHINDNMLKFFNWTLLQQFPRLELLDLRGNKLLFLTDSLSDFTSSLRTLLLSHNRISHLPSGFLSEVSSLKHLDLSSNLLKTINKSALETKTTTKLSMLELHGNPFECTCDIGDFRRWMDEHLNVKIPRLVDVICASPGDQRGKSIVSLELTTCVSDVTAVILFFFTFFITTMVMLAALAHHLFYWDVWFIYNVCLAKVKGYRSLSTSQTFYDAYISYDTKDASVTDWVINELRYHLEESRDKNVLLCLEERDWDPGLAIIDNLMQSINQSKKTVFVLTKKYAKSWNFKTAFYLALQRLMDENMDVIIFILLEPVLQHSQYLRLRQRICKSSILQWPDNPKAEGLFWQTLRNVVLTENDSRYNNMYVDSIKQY
Sequence of TLR9 (Q9NR96 26-1032): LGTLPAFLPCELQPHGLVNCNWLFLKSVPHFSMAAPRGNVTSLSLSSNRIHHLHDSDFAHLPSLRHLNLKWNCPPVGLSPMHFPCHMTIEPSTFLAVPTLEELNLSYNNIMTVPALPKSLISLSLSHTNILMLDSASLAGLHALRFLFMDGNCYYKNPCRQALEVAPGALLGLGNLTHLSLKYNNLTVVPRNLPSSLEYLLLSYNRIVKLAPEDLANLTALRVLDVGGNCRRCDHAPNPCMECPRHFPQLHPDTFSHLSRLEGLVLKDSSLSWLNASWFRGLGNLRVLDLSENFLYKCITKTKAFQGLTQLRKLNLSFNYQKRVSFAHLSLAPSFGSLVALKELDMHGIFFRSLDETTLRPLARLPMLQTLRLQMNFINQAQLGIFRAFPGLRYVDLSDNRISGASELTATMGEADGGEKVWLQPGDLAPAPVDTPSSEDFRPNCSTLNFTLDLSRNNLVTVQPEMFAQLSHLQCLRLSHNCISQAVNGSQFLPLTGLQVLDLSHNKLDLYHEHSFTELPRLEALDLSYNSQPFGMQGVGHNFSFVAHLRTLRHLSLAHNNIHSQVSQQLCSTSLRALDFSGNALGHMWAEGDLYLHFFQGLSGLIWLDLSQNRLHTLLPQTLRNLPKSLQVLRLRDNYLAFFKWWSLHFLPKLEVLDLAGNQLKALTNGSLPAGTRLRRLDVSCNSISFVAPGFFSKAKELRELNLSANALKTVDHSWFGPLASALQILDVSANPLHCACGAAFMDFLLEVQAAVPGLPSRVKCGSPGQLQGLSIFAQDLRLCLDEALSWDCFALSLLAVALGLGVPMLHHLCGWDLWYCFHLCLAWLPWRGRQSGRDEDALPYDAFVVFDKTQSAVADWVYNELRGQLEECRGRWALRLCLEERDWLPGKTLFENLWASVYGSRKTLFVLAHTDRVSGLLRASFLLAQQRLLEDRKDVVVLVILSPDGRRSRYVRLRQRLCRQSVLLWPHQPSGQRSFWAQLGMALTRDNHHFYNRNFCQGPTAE

Consider `CCc1nc(N2CCC(N3CCNCC3)CC2)ncc1-c1cc(C)c2nccn2c1` [Example 27, 6-[4-ethyl-2-(4-piperazin-1-yl-1-piperidyl)pyrimidin-5-yl]-8-methyl-imidazo[1,2-a]pyridine], for which the “Clearance of Human microsome” value in data set [1] is 7.75 mL/min/kg. In addition, the IC50 on human TLR7 was 3.3 nM; at TLR9 it was 259 nM; on human TLR8, 4.6 nM.

`CCc1nc(N2CCC(N3C[C@@H](N)[C@H](OC)C3)CC2)ncc1-c1cc(C)c2nccn2c1` [Example 26, (3R,4R)-1-[1-[4-ethyl-5-(8-methylimidazo[1,2-a]pyridin-6-yl)pyrimidin-2-yl]-4-piperidyl]-4-methoxy-pyrrolidin-3-amine]: the “Clearance of Human microsome” value in data set [1] is listed as 8.69 mL/min/kg. Also, the IC50 on human TLR7 was 7.4 nM; at TLR9, 229 nM; on human TLR8, 1 nM.

Turning to `COc1cc(-c2ccc(N3CCC4(CCNCC4)CC3)nc2C(F)F)cn2ccnc12` [Example 13, 3-[6-(difluoromethyl)-5-(8-methoxyimidazo[1,2-a]pyridin-6-yl)-2-pyridyl]-3,9-diazaspiro[5.5]undecane], the “Clearance of Human microsome” value in data set [1] is 9.16 mL/min/kg. For the same compound, the IC50 came to 7.4 nM on human TLR7, 293 nM on TLR9 and 28.4 nM on human TLR8.

With `CO[C@@H]1CN(C2CCN(c3ccc(-c4cc(C)c5nccn5c4)c(N(C)C)n3)CC2)C[C@H]1N` [Example 24, 6-[4-[(3R,4R)-3-amino-4-methoxy-pyrrolidin-1-yl]-1-piperidyl]-N,N-dimethyl-3-(8-methylimidazo[1,2-a]pyridin-6-yl)pyridin-2-amine], the IC50 turned out to be 20.1 nM on human TLR7, 107 nM on TLR9 and 4 nM on human TLR8.

With `Cc1cc(-c2ccc(N3CCC(N)CC3)nc2C(C)C)cn2ccnc12` [Example 1, 1-[6-isopropyl-5-(8-methylimidazo[1,2-a]pyridin-6-yl)-2-pyridyl]piperidin-4-amine], the “Clearance of Human microsome” value in data set [1] is listed as 9.06 mL/min/kg. The values for the IC50 at human TLR7, on TLR9 and at human TLR8 were 1.4 nM, 292 nM and 1.3 nM, respectively.

Regarding `CCc1nc(N2CCN(c3ncc4c(n3)CNCC4)CC2)ccc1-c1cc(C)c2nc(C)cn2c1` [Example 19, 2-[4-[5-(2,8-dimethylimidazo[1,2-a]pyridin-6-yl)-6-ethyl-2-pyridyl]piperazin-1-yl]-5,6,7,8-tetrahydropyrido[3,4-d]pyrimidine], the IC50 at human TLR7 amounted to 43.5 nM; on TLR9, 131 nM; on human TLR8, 1.3 nM.

`CCc1nc(N2CCN(C(=O)C3CNCCO3)CC2)ccc1-c1cc(C)c2nc(C)cn2c1` (centres unmarked) [Example 18, [4-[5-(2,8-dimethylimidazo[1,2-a]pyridin-6-yl)-6-ethyl-2-pyridyl]piperazin-1-yl]-morpholin-2-yl-methanone]: the IC50 on human TLR7 came to 22.4 nM; at TLR9, 255 nM; on human TLR8, 28.8 nM.

`Cc1cc(-c2ccc(N3CCC(N4CCNCC4)CC3)nc2N(C)C)cn2ccnc12` [Example 23, N,N-dimethyl-3-(8-methylimidazo[1,2-a]pyridin-6-yl)-6-(4-piperazin-1-yl-1-piperidyl)pyridin-2-amine]: the values for the IC50 on human TLR7, at TLR9 and at human TLR8 were 6.4 nM, 118 nM and 8.1 nM, respectively.

As to `CCc1nc(N2CCC(N3CC4(CNCCO4)C3)CC2)ncc1-c1cc(C)c2nccn2c1` [Example 28, 2-[1-[4-ethyl-5-(8-methylimidazo[1,2-a]pyridin-6-yl)pyrimidin-2-yl]-4-piperidyl]-5-oxa-2,8-diazaspiro[3.5]nonane], the values for the IC50 on human TLR7, at TLR9 and on human TLR8 were 15.3 nM, 159 nM and 1.3 nM, respectively.

Take `CCc1nc(N2CCC(N3CC4(CNCCO4)C3)CC2)ccc1-c1cc(C)c2nc(C)cn2c1` [Example 16, 2-[1-[5-(2,8-dimethylimidazo[1,2-a]pyridin-6-yl)-6-ethyl-2-pyridyl]-4-piperidyl]-5-oxa-2,8-diazaspiro[3.5]nonane]: the “Clearance of Human microsome” value in data set [1] is given as 9.54 mL/min/kg. Also, the figures for the IC50 at human TLR7, on TLR9 and on human TLR8 were 6.2 nM, 111 nM and 15.7 nM, respectively.

As for `Cc1cn2cc(-c3ccc(N4CCC5(CC4)COCCN5)nc3C(C)C)cc(C)c2n1` [Example 6, 9-[5-(2,8-dimethylimidazo[1,2-a]pyridin-6-yl)-6-isopropyl-2-pyridyl]-4-oxa-1,9-diazaspiro[5.5]undecane], the IC50 stood at 13.6 nM at human TLR7, 269 nM on TLR9 and 27 nM at human TLR8.
